According to a melting point compilation (Tetko et al.; mined from patent text by program, amines drawn as free bases though some values may be those of a salt):

Row | melting point | Compound
1 | 111 to 112 °C | COC1CN(c2ccc(N3C[C@H](CN=[N+]=[N-])OC3=O)cc2F)C1
2 | 141 °C | CC(C)(C)OC(=O)NNC(=O)C=Cc1cc(=O)c(OCc2ccccc2)c[nH]1
3 | 35.6 °C | CCCCCCCCOc1ccc(C=[N+]([O-])C(C)(C)C)c(F)c1
4 | 176 to 178 °C | CC(C)COc1ccc(Br)cc1N(Cc1ccc(N(C)C)cc1)C(=O)C1CCCc2ccccc21 (stereo not drawn)
5 | 189 to 195 °C | CNC(=O)C(=NOC)c1ccccc1COc1ncc(C(=O)O)cc1Cl
6 | 82 to 83 °C | CCC(C)c1nn(-c2ccc(C(F)(F)F)cn2)cc1C=O (stereo not drawn)
7 | 115 °C | O=C1C=CC(=O)C(CC(Cl)(Cl)Cl)=C1
8 | 152 to 154 °C | CC(COc1ccc(O)c(C(N)=O)c1)NCC(O)c1ccccc1 (stereo not drawn)
9 | 126 to 128 °C | O=C(NC(=S)NCCSCc1c[nH]cn1)c1ccccc1
10 | 93.7 to 95.7 °C | CCOC(=O)c1cnc2ccc(OC)cc2c1Cl
11 | 98 to 100 °C | COC(=O)c1ccc(OC)c(OC(C)(C)C)c1
12 | 175 °C | CN(C)c1c(Cl)cc(C(O)C#Cc2ccc(C(=O)O)c(O)c2)cc1C(C)(C)C (stereo not drawn)
13 | 176 to 179 °C | CCCCNc1nc(N)nc(-c2ccc(Cl)c(Cl)c2)n1
14 | 145 to 150 °C | CCc1nc2cc(C(=O)O)c(Cl)cc2n1-c1ccc(CCNC(=O)NS(=O)(=O)c2ccc(C)cc2)cc1
15 | > 250 °C | Cc1ccc(-c2cc(F)c3c(c2)CC(CN)O3)cc1 (stereo not drawn)
16 | 136 °C | OC(COc1ccc(Cl)cc1Cl)(COc1ccc(Cl)cc1Cl)Cn1cncn1
17 | 122 to 123 °C | Cc1sc(N)c(C(=O)c2ccc(Cl)cc2)c1C
18 | 158 to 162 °C | Cn1c(=O)c(Oc2ccccc2F)cc2cnc(S(C)(=O)=O)nc21
19 | 221 to 225 °C | CN1c2ccc(-c3cccc4ccccc34)cc2S(=O)(=O)c2cc(-c3cccc4ccccc34)ccc21
20 | 167 to 168 °C | COC(=O)c1cc(C(=O)NCCCO)c2cc(Cc3ccc(F)cc3)cnc2c1O
21 | 150 °C | COC(=O)[C@@H]1CCN1S(=O)(=O)c1ccc(Cl)c(CBr)c1Cl
22 | 67 to 70 °C | O=[N+]([O-])c1ccccc1Nc1ccccc1O
23 | 271 to 273 °C | COc1cc(C#N)ccc1-c1cc(-c2cc(C#N)ccc2OC)on1
24 | 179 °C | COc1ccc(C2=NN(Cc3cccc(C(=O)NC4CCCC4)c3)C(=O)CC2)cc1OC

Row | melting point | Compound
25 | 124 to 126 °C | COc1ccc(N2CCN(c3c(C)c(C)c4c(c3C)C(N3CCCC3)C(C)(C)O4)CC2)cc1 (stereo not drawn)
26 | 104 to 106 °C | CCOC(=O)COc1ccc(C=NCCN=Cc2ccc(OCC(=O)OCC)cc2O)c(O)c1
27 | 77 °C | O=C(Cc1ccc(Cl)cc1Cl)c1ccncc1
28 | 54 to 77 °C | Cc1cc(N=C2NCCN2)cc(NS(C)(=O)=O)c1
29 | 173 to 174 °C | CN1CCC(N2C(=O)c3ccccc3Oc3ccccc32)CC1
30 | 102 °C | Nc1ccc(Oc2ccccc2C(=O)Oc2ccccc2)cc1
31 | 126 to 127 °C | COC(=O)c1cccc2c1C(Cc1ccnc(F)c1)(Cc1ccnc(F)c1)c1ccccc1-2
32 | 180 °C | Cc1nc(N(C)N)[nH]c(=O)c1CCO
33 | 149 °C | CC(=O)OC1CSC(Oc2ccc(C(C)=O)nc2)C(OC(C)=O)C1OC(C)=O (stereo not drawn)
34 | 235 to 238 °C | COc1ccc(-c2cnc(C(N)=O)nc2)cc1OC1CCCC1
35 | 91 to 92 °C | C=C(C)C(=O)N1c2ccccc2Sc2ccc(OC)cc21
36 | 79 to 80 °C | CNC(NCCNCc1ccc(CN(C(C)C)C(C)C)o1)=C(C#N)C#N
37 | 176 to 180 °C | O=C(O)CCC(=O)c1ccc2c(c1)CNC(=O)N2
38 | 173 °C | CC(C)n1c(=O)n(C(=O)NCC2CCN(CC3(C(=O)O)CCC3)CC2)c2ccccc21
39 | 105 to 107 °C | N#Cc1ncn2c1N(C(=O)CN1CCN(C(c3ccccc3)c3ccc(Cl)cc3)CC1)CC=C2c1cccc(C(F)(F)F)c1 (stereo not drawn)
40 | 298 to 300 °C | COc1cccc2c(=O)cc(C=Cc3ccc(C(=O)O)cc3)oc12
41 | 189 to 190 °C | CCOC(=O)C(Cc1cccc(OC)c1Oc1ccc([N+](=O)[O-])cc1)(NC(C)=O)C(=O)OCC
42 | 213 to 231 °C | Nc1ccn(C2CCCCC2)c(=O)n1
43 | 120 to 132 °C | CCN1CCc2cc(Nc3ncc(Cl)c(Nc4ccccc4C(=O)NC)n3)c(OC)cc2CC1=O
44 | 128 °C | CCCCC(CC)COc1cc(CO)c(-n2c3ccccc3c3ccccc32)cc1CO (stereo not drawn)
45 | 121 to 124 °C | CCOP(=O)(CC(=O)Nc1cc2c(Nc3ccc(Cl)c(Cl)c3)ncnc2cn1)OCC
46 | 243 °C | O=c1ccc(O)nn1-c1ccc(OC(F)(F)F)cc1
47 | 111 to 113 °C | COC(=O)Nc1ccccc1CSc1ncc(C(F)(F)F)cc1Cl
48 | 93 to 94 °C | COC(=O)C1CCC2C3CCC4CC(=O)CCC4(C)C3C(NC3CCCCC3)CC12C (stereo not drawn)

Row | melting point | Compound
49 | 133 to 136 °C | CCCc1nc2cnc3cc(OCC(=O)N4CCOCC4)ccc3c2s1
50 | 95 to 96 °C | COc1ccc(CCCc2ccc(O)cc2)c(O)c1
51 | 149 to 151 °C | COc1cc2c(cc1OC)C1C(CO)CSC(C=N)N1CC2 (stereo not drawn)
52 | 140 to 141 °C | Cc1nc2c(N)nc3c(c2n1CCOCCCc1cccnc1)CCCC3
53 | 65 to 67 °C | CCCCCCCCCCCCCCCCCCOCC(CO)Oc1nccs1 (stereo not drawn)
54 | 125 to 127 °C | CCOc1ccc(OCCCN2CCN(c3ccc(Cl)nn3)CC2)cc1
55 | 256 °C | O=c1cc(-c2c(F)cccc2F)[nH]c(=O)n1-c1ccc(Cl)c(Cl)c1
56 | 172 to 174 °C | COc1nccc(C)c1NC(=O)c1cc(C)nc2c1c(C)nn2-c1ccccc1
57 | 115 °C | C[C@H](NC(=O)c1ncc[nH]1)C(=O)NC(C=O)CC(=O)O (stereo partly drawn)
58 | 308 °C | Cc1cc2ccccn2c1C(=O)c1ccc2c(c1)c(=O)c(C(=O)O)cn2C
59 | 160 to 161 °C | Nc1nc(-c2ccc(CN3CCCCCC3)s2)n[nH]1
60 | 317 to 323 °C | O=S1(=O)N=C(NCC2CCCCC2)Nc2cc(Cl)ccc21
61 | 244 to 245 °C | O=c1cnc2c(NC(CO)CO)nc(SCc3cccc(C(F)(F)F)c3F)nc2[nH]1
62 | 218 to 220 °C | CCc1[nH]n(C2CCCC2)c2nc(Cc3ccc(OCC(=O)O)cc3)nc(=O)c1-2
63 | 86 to 88 °C | CON=C(C)C(C)=NOc1ncccc1N(OC)C(=O)OC
64 | 115 to 116 °C | Cc1cc(C)c(Nc2nc(C)ccc2S(=O)(=O)c2ccc(OCCCCC#N)cc2)c(C)c1
65 | 222 °C | CN1CCN(c2cccc3c2C[C@H](NC(=O)c2ccc(C(=O)N4CCOCC4)cc2)CO3)CC1
66 | 208 to 210 °C | Cc1[nH]c2ccccc2c1CCCN1CCC(c2noc3cc(F)ccc23)CC1
67 | 242 °C | Cn1c2c(c3cccc(F)c31)C(=O)NCC2
68 | 121 to 123 °C | C/C=C/C(=O)NCCc1ccc(F)cc1
69 | 323 to 325 °C | O=C(c1nccs1)c1cnn2c(-c3ccncc3)ccnc12
70 | 199 to 200 °C | COCc1cnc2c(NC(=O)c3c(Cl)cccc3Cl)cccc2c1CO
71 | 126 to 128 °C | N#CN=C(Nc1cccnc1)NC(NC(=O)c1ccc(Cl)cc1)C(Cl)(Cl)Cl (stereo not drawn)
72 | 109 to 111 °C | CC(=O)ON1C(C)(C)CC2(CC1(C)C)OCC(C)(C)CO2

Row | melting point | Compound
73 | 142 °C | Clc1ccc(-c2ncoc2-c2ccncc2)cc1Cl
74 | 128 to 129 °C | COc1ccc(-c2ccc(Cl)nn2)c(OCC(O)CNC(C)C)c1 (stereo not drawn)
75 | 170 to 172 °C | CC(C)c1cc(C(=O)NCc2ccccc2)c(N)s1
76 | 158 to 161 °C | COc1ccccc1NC(=O)Nc1ccc(C2CCN(C(=O)Nc3ccc(OCC(O)CO)cc3Cl)CC2)cc1 (stereo not drawn)
77 | 108 to 109 °C | CC(C)(C)OC(=O)N[C@@H](COS(C)(=O)=O)c1ccccc1
78 | 160 to 162 °C | CC(C)n1nc(-c2c(-c3ccccc3)nn3ccc(OCCN4CCOCC4)cc23)ccc1=O
79 | 29 to 31 °C | O=C(c1ccccc1)c1ccccc1I
80 | 186 to 187 °C | C=CCc1ccc(CCNC(=O)c2cc(Cl)ccc2OC)cc1S(N)(=O)=O
81 | 155 to 157 °C | COc1ccccc1CCCNc1ccc(C(=O)O)cc1
82 | 103 to 104 °C | CCOC(=O)C1=NN(c2cccc(Cl)c2)C(c2ccccc2)CO1 (stereo not drawn)
83 | 182 to 185 °C | Cc1cccc2cc3c(=O)n(CCc4cn(C(=O)NCCN(C)C)c5ccccc45)cc(C(=O)NCCN(C)C)c3nc12
84 | 52 to 54 °C | CC(C)(CO)CCCCCCCCCC(C)(C)CO
85 | 196 to 198 °C | CC(C)C[C@H](NC(=O)[C@H](Cc1c[nH]cn1)NC(=O)[C@H](Cc1cccc2ccccc12)NC(=O)OCc1ccccc1)[C@@H](O)CCO
86 | 176 to 178 °C | Cc1nc(C)c(-c2ccnc(Nc3cccc([N+](=O)[O-])c3)n2)s1
87 | 165 °C | Cc1cnc2n1-c1cc(Cl)c(Cl)cc1N=C(c1ccc(-n3c(C)nnc3C)cc1)C2
88 | 149 °C | CON(Cc1ccc(Cl)c(Cl)c1)C(=O)C1=C(O)C(=O)N(C)C1
89 | 179 to 180 °C | O=C1N(N(c2ccccc2)c2ccccc2)c2ccccc2C1(Cc1ccnc(F)c1)Cc1ccnc(F)c1
90 | 175 to 177 °C | CNC(=O)Cc1ncc2c(n1)-c1ccc(Cl)cc1C(c1ccccc1F)=NC2
91 | 234 to 236 °C | CCc1nc2c(N)nc3cccnc3c2n1CC1(O)CCOC1 (stereo not drawn)
92 | 184 °C | CC(C)c1ccc(NC(=O)C2CCCc3c(OCc4ccccc4)ccc(F)c32)cn1 (stereo not drawn)
93 | 130 to 133 °C | C#CCN(Cc1ccc2nc(C)[nH]c(=O)c2c1)c1ccc(C(=O)NCC2CCNCC2)cc1
94 | 161 to 162 °C | CSc1nc(=O)n(CCO)cc1F
95 | 158 to 159 °C | CON=Cc1ccc2c(c1)ncn2-c1cccc(-c2ncccn2)c1

Row | Compound | melting point
96 | CC(=O)OC1CC2(C)C(=O)CCC2C2C(CCCCCCCCCCl)CC3=CC(=O)CCC3C12 (stereo not drawn) | 113 to 115 °C
97 | C[C@]12C[C@H](c3ccc(OCCCCCl)cc3)C3=C4CCC(=O)C=C4CC[C@H]3[C@@H]1CCC2=O | 194 °C
98 | O=C1Nc2ccccc2C(c2ccccc2)=NC1NC(=S)c1cccc(C(F)(F)F)c1 (racemic) | 230 to 232 °C
